Measurements from patent US12492188B2, “1H-benzo[D]imidazole derivatives as TLR9 inhibitors for the treatment of fibrosis” (BRISTOL-MYERS SQUIBB COMPANY, priority 2020, dated 2025).
Read-outs that look alike come from different tables or passages of the source.

Columns and labels:
[1] = target: T1, human TLR9 (Homo sapiens, UniProt Q9NR96); assay: TLR9 inhibition reporter assay (HEK-Blue cells, secreted embryonic alkaline phosphatase reporter); type: cell-based
T1 construct: host or cells: HEK-Blue cells (HEK293-derived reporter line)
T1 sequence (Q9NR96 26-1032): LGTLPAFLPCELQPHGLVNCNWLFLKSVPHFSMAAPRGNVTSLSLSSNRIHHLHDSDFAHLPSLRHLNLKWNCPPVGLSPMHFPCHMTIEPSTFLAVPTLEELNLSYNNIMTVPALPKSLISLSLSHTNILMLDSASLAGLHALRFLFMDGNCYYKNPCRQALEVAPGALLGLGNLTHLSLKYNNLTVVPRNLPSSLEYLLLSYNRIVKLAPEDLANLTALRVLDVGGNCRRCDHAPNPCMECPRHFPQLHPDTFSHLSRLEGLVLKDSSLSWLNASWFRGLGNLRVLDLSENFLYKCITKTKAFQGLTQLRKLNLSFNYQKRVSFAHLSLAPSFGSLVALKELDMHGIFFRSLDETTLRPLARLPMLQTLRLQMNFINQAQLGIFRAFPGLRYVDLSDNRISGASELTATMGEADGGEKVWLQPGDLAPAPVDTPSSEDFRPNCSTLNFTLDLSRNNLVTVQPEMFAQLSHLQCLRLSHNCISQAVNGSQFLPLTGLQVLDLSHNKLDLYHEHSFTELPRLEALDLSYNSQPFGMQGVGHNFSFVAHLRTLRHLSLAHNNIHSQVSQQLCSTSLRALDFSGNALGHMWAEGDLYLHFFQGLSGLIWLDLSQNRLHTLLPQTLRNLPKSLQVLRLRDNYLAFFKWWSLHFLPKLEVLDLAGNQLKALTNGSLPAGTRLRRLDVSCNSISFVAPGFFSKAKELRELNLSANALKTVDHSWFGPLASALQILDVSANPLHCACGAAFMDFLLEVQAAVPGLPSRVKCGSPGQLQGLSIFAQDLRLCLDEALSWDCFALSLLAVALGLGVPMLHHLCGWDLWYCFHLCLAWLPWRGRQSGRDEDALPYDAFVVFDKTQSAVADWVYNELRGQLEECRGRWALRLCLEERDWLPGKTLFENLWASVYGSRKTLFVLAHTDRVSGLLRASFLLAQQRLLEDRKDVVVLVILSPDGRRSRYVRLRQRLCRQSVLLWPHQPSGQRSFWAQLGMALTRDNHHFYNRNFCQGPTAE
Method in brief: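 Agonist-driven SEAP output was measured in HEK-Blue reporter cells carrying human TLR7 (gardiquimod 7.5 μM), TLR8 (R848 15.9 μM) or TLR9 (ODN2006 5 nM). Compounds at 0.05 nM–50 μM final were added 30 min before stimulation at room temperature. After 22 h at 37 °C, percent inhibition was taken against agonist/DMSO wells and a reference inhibitor.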

[2] = target: T2, human TLR7 (Homo sapiens, UniProt Q9NYK1); assay: TLR7 inhibition reporter assay (HEK-Blue cells, secreted embryonic alkaline phosphatase reporter); type: cell-based; settings: HEK-Blue cells overexpressing human TLR7, stimulated with gardiquimod 7.5 μM; read-out: TLR 7 IC50
T2 construct: host or cells: HEK-Blue cells (HEK293-derived reporter line)
T2 sequence (Q9NYK1 27-1049): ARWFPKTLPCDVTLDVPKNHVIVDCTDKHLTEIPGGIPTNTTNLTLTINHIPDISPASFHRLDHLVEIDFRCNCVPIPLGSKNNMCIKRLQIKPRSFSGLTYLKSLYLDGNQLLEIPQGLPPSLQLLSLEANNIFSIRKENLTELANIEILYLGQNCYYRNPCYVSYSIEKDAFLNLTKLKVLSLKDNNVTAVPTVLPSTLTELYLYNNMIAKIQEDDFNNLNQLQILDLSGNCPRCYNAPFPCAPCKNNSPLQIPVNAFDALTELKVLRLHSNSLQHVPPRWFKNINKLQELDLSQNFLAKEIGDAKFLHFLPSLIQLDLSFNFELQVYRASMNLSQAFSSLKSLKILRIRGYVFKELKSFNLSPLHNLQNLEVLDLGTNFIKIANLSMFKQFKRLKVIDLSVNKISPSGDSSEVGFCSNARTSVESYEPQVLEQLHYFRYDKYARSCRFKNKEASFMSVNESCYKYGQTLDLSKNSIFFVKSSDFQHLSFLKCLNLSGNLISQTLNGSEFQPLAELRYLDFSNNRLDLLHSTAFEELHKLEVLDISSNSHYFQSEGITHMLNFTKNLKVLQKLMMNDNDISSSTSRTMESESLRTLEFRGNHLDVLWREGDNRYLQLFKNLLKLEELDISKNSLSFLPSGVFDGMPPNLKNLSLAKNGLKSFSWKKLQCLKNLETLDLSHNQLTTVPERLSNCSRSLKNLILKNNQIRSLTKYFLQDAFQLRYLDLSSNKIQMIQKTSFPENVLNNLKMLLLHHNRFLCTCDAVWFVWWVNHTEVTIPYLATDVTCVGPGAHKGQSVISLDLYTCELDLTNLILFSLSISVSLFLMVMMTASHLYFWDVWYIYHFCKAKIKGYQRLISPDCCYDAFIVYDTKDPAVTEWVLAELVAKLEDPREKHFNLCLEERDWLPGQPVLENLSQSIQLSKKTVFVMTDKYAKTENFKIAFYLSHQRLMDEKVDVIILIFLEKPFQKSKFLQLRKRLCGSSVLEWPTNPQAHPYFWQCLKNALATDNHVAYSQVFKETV
Description: TLR7/8/9 Inhibition Reporter Assays
HEK-Blue™-cells (Invivogen) overexpressing human TLR7, TLR8 or TLR9 receptors were used for screening inhibitors of these receptors using an inducible SLAP (secreted embryonic alkaline phosphatase) reporter gene under the control of the […] minimal promoter fused to five NF-κB and AP-1-binding sites. Briefly, cells are seeded into Greiner 384 well plates (15000 cells per well for TLR7, 20,000 for TLR8 and 25,000 for TLR9) and then treated with test compounds in DMSO to yield a final dose response concentration range of 0.05 nM-50 μM. After a 30 minute compound pre-treatment at room temperature, the cells are then stimulated with a TLR7 ligand (gardiquimod at a final concentration of 7.5 μM), TLR8 ligand (R848 at a final concentration of 15.9 μM) or TLR9 ligand (ODN2006 at a final concentration of 5 nM) to activate NF-κB and AP-1 which induce the production of SLAP. After a 22 hour incubation at 37° C., […], SLAP levels are determined with the addition of HEK-Blue™ Detection reagent (Invivogen), a cell culture medium that allows for detection of SLAP, according to manufacturer's specifications. The percent inhibition is determined as the […] in the HEK-Blue signal present in wells treated with agonist plus DMSO alone compared to wells treated with a known inhibitor.

[3] = HEK-Blue cells overexpressing human TLR9, stimulated with ODN2006 5 nM, 22 hour incubation, reporter readout
[4] = HEK-Blue cells overexpressing human TLR9, stimulated with ODN2006 5 nM, read-out: TLR 9 IC50
[5] = HEK-Blue human TLR9 reporter cells

Compound	IC50 [1, 3] [nM]	IC50 [1, 4] [nM]	IC50 [2] [nM]	IC50 [1] [nM]	IC50 [1, 5] [nM]
Cc1cc(-c2ccc(CN3C[C@@H]4CN(CC(C)C)C[C@@H]4C3)cc2)cc2c1nc(-c1ccc(S(C)(=O)=O)cc1)n2C [Example 396, 6-(4-((cis-5-isobutylhexahydropyrrolo[3,4-c]pyrrol-2(1H)-yl)methyl)phenyl)-1,4-dimethyl-2-(4-(methylsulfonyl)phenyl)-1H-benzo[d]imidazole]	200	203	6700		
Cc1cc(-c2ccc(CN3CCC(N4CCCC4)CC3)cc2)cc2c1nc(-c1ccc(S(C)(=O)=O)cc1)n2C [Example 369, 1,4-dimethyl-2-(4-(methylsulfonyl)phenyl)-6-(4-((4-(pyrrolidin-1-yl)piperidin-1-yl)methyl)phenyl)-1H-benzo[d]imidazole]	120	121	900		
Cc1cc(-c2ccc(CN3C[C@H]4CN(C)C[C@H]4C3)cc2)cc2c1nc(-c1ccc(S(C)(=O)=O)cc1)n2C [Example 398, 1,4-dimethyl-6-(4-((cis-5-methylhexahydropyrrolo[3,4-c]pyrrol-2(1H)-yl)methyl)phenyl)-2-(4-(methylsulfonyl)phenyl)-1H-benzo[d]imidazole]	130	128	1700		
COc1ccc(-c2nc3c(C)cc(C4CCN(C5CC6CCC(C5)N6C5CCC5)CC4)cc3n2C)cc1OC (centres unmarked) [Example 147, 6-(1-(8-cyclobutyl-8-azabicyclo[3.2.1]octan-3-yl)piperidin-4-yl)-2-(3,4-dimethoxyphenyl)-1,4-dimethyl-1H-benzo[d]imidazole]		199		200	
Cc1cc(C2CCN(C3CCN(CC(C)C)CC3)CC2)cc2[nH]c(-c3ccc(OC(F)(F)F)c(Cl)c3)nc12 [Example 73, 2-(3-chloro-4-(trifluoromethoxy)phenyl)-6-(1′-isobutyl-[1,4′-bipiperidin]-4-yl)-4-methyl-1H-benzo[d]imidazole tris(2,2,2-trifluoroacetate)]	270	270			
Cc1cc(-c2ccc(N3CCN(CC4CC4)CC3)cc2)cc2c1nc(-c1ccc(S(C)(=O)=O)cc1)n2C [Example 171, 6-(4-(4-(cyclopropylmethyl)piperazin-1-yl)phenyl)-1,4-dimethyl-2-(4-(methylsulfonyl)phenyl)-1H-benzo[d]imidazole]		653		650	
Cc1cc2nc(-c3ccc(S(C)(=O)=O)cc3)n(C)c2cc1C1CCN(C2CCN(CC(C)C)CC2)CC1 [Example 331, 6-(1′-isobutyl-[1,4′-bipiperidin]-4-yl)-1,5-dimethyl-2-(4-(methylsulfonyl)phenyl)-1H-benzo[d]imidazole]		143			140
CN(C)C1CCN(Cc2ccc(-c3ccc4nc(-c5cccc(S(C)(=O)=O)c5)n(C)c4c3)cc2)CC1 [Example 384, N,N-dimethyl-1-(4-(1-methyl-2-(3-(methylsulfonyl)phenyl)-1H-benzo[d]imidazol-6-yl)benzyl)piperidin-4-amine]	41	41000			

Compounds with a lower IC50 [1, 4], results first:

IC50 [1, 3] [nM]	IC50 [1, 4] [nM]	IC50 [2] [nM]	IC50 [1] [nM]	IC50 [1, 5] [nM]	Compound
86	86	2600			Cc1cc(-c2ccc(CN3C[C@@H]4CN(C(C)C)C[C@@H]4C3)cc2)cc2c1nc(-c1ccc(S(C)(=O)=O)cc1)n2C [Example 397, 6-(4-((cis-5-isopropylhexahydropyrrolo[3,4-c]pyrrol-2(1H)-yl)methyl)phenyl)-1,4-dimethyl-2-(4-(methylsulfonyl)phenyl)-1H-benzo[d]imidazole]
140	100	4300			Cc1cc(-c2ccc(C3CCN(C)CC3)cc2)cc2c1nc(-c1ccc(S(C)(=O)=O)cc1)n2C [Example 363, 1,4-dimethyl-6-(4-(1-methylpiperidin-4-yl)phenyl)-2-(4-(methylsulfonyl)phenyl)-1H-benzo[d]imidazole]
	22		22		COc1ccc(-c2nc3cc(F)c(C4CCN(C5CCN(CC(C)C)CC5)CC4)cc3[nH]2)cc1OC [Example 130, 2-(3,4-dimethoxyphenyl)-5-fluoro-6-(1′-isobutyl-[1,4′-bipiperidin]-4-yl)-1H-benzo[d]imidazole]
91	91				COc1ccc(-c2nc3c(C)cc(C4CCN(C5CCN(CC(C)C)CC5)CC4)cc3[nH]2)cc1Cl [Example 64, 2-(3-chloro-4-methoxyphenyl)-6-(1′-isobutyl-[1,4′-bipiperidin]-4-yl)-4-methyl-1H-benzo[d]imidazole]
	48			48	Cc1cc(C2CCN(C3CC4CCC(C3)N4CC3CC3)CC2)cc2[nH]c(-c3ccc(S(C)(=O)=O)c(F)c3)nc12 (centres unmarked) [Example 351, 6-(1-(8-(cyclopropylmethyl)-8-azabicyclo[3.2.1]octan-3-yl)piperidin-4-yl)-2-(3-fluoro-4-(methylsulfonyl)phenyl)-4-methyl-1H-benzo[d]imidazole]
49	49				Cc1cc(C2CCN(C3CCN(CC(C)C)CC3)CC2)cc2[nH]c(-c3cnc4[nH]ccc4c3)nc12 [Example 81, 6-(1′-isobutyl-[1,4′-bipiperidin]-4-yl)-4-methyl-2-(1H-pyrrolo[2,3-b]pyridin-5-yl)-1H-benzo[d]imidazole]
	20		21		Cc1cc(C2CCN(C3CCCN(C(C)C)CC3)CC2)cc2c1nc(-c1ccc(S(C)(=O)=O)cc1)n2C (centres unmarked) [Example 134, 6-(1-(1-isopropylazepan-4-yl)piperidin-4-yl)-1,4-dimethyl-2-(4-(methylsulfonyl)phenyl)-1H-benzo[d]imidazole]
